Source: publication PMC12666486, “Novel dimeric dual-modality FAP-targeted agents with favorable tumor retention for image-guided surgery: a preclinical study” (European Journal of Nuclear Medicine and Molecular Imaging, 2025)

Key:
[1] = design: method as in manufacturers; settings: unconjugated dyes; ref manufacturers; cited from earlier work
[2] = ref 3 (supplement); cited from earlier work
HT1080hFAP cells = assay: Radioactive-based cell efflux study; design: species or system human; settings: 2 h post-initial incubation
Protocol: For cell efflux studies, 1.0 × 10^6 HT1080hFAP cells were seeded in 6-well plates and cultivated for 48 h. On the day of the experiment, the cells in each well were washed twice with 1.5 mL of culturing medium and then incubated with the Gallium-68 labelled radiotracer at a final concentration of 1 nM/well for 1 h at 37 °C. The medium containing the unbound radiotracer was then replaced with either fresh medium or a 1 µM FAPI-46 solution in cell medium for blocking condition.
Subsequently, at specific time points, the radioactive medium was removed and collected together with two PBS/0.5% (w/v) BSA washes before adding 1 mL of fresh medium or FAPI-46 blocking solution. Finally, 2 h after the end of the first incubation, the cells were lyzed with 1 mL of 1 M NaOH. All collected fractions were measured in the γ-counter and the percentage of cell-associated activity at different time points relative to the total, corresponding to 1 h after incubation, was reported. The number of experimental replicates performed for each assay is specified in the respective figure legends.

HT1080hFAP tumor = assay: Static PET/CT imaging of xenografted mice; format: in vivo, BALB/c nude mice; settings: 1.0 nmol, one mouse per compound
Protocol: For the induction of tumor xenografts, 2 × 10^6 of HT1080hFAP or HT1080 cells in 100 μL appropriate medium were subcutaneously injected in the right and left flank of each mouse (athymic female BALB/c nude), respectively. The tumors were allowed to grow until they had reached a volume of 0.3 to 0.8 cm^3. […] To evaluate ex vivo biodistribution on tumor models, 3 mouse xenografts were injected with 0.25 nmol of Gallium-67 labelled tracer (0.4 MBq) and then sacrificed after 1 h, 4 h and 1 day. For the PET/CT imaging study one xenograft-bearing mouse (tumor volume in the range 0.6–1.0 cm^3) was injected with 1.0 nmol of Gallium-68 labelled tracer (5–8 MBq). […] The images were visualized, processed, and quantified in Mediso InterView FUSION (Mediso Medical Imaging Systems, Budapest, Hungary). […] The results were expressed as percentages of injected dose per gram tissue (% ID/g). For the comparative imaging study (SPECT and in vivo fluorescence imaging), one xenograft-bearing mouse (tumor volume in the range 0.2–0.7 cm^3) was injected with 1.5–2 nmol of Gallium-67 tracer (15–17 MBq) and imaged at various time points up to 2 days p.i. […] The images were visualized, processed, and quantified in Mediso InterView FUSION (Mediso Medical Imaging Systems, Budapest, Hungary). […] The fluorescence emission was reported as photons/s/mm^2.

Structure (SMILES) | Stokes shift [1] | λEm (nm) [1] [nm] | λEx (nm) [1] [nm] | other results
CC1(C)C(=CC=C2CCCC(C=CC3=[N+](CCCCCC(=O)[O-])c4ccc(S(=O)(=O)[O-])cc4C3(C)C)=C2Oc2ccc(S(=O)(=O)[O-])cc2)N(CCCCS(=O)(=O)[O-])c2ccc(S(=O)(=O)[O-])cc21.[Na+].[Na+].[Na+].[Na+] [IRDye-800CW] | 17 | 792 | 775 | –
CC(=O)NC1CCCN(O)C(=O)/C=C(/C)CCOC(=O)C(NC(C)=O)CCCN(O)C(=O)/C=C(/C)CCOC(=O)C(NC(C)=O)CCCN(O)C(=O)/C=C(/C)CCOC1=O (centres unmarked) [TAFC] | – | – | – | LogDpH7.4 [2]: -2.08 ± 0.02
CC1(C)C(=CC=C2CCCC(C=CC3=[N+](CCC[N+](C)(C)C)c4ccc(S(=O)(=O)O)cc4C3(C)C)=C2Oc2ccc(CCC(=O)O)cc2)N(CCC[N+](C)(C)C)c2ccc(S(=O)(=O)O)cc21 [ZW800] | 18 | 786 | 768 | –
CN(CCCN1CCN(C(=O)CN2CCN(CC(=O)[O-])CCN(CC(=O)[O-])CCN(CC(=O)[O-])CC2)CC1)c1ccc2nccc(C(=O)NCC(=O)N3CC(F)(F)C[C@H]3C#N)c2c1.[68Ga+3] [[^68Ga]Ga-FAPI-46] | – | – | – | Retained activity, % of the internalized fraction (HT1080hFAP cells; blocking with 1 µM FAPI-46, 1 nM): 9.4 ± 1.5%; Retained activity, % of the internalized fraction (HT1080hFAP cells; without blocking, 1 nM): 21.9 ± 1.4%; %ID/g in FAP(+)T (PET/CT, manually drawn ROI) (HT1080hFAP tumor; 1h p.i.): 3.4 %ID/g; %ID/g in FAP(+)T (PET/CT, manually drawn ROI) (HT1080hFAP tumor; 2h p.i.): 3.1 %ID/g
